Active and inactive are the calls of the source. A value given as a limit tells only on which side of the number the result lay.

Consider 7 molecules from ChEMBL document CHEMBL1201862, “PubChem BioAssay data set” (2004).

A short description of assay [1]: insulin promoter down-regulators in MIN6 cells, imaging, high-content screening, mouse beta cells (AID 1628). Type of assay: functional.
The nature of assay [2]: cytotoxicity in MIN6 insulinoma cells, dose response, cytotoxicity control, cell-based, mouse insulinoma (AID 2122).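 Further: confirmatory high-throughput counterscreen run to flag cytotoxic compounds; mouse MIN-6 beta cells carrying an insulin promoter eGFP reporter.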 The assay is classed as functional.
Assay [3] in a line: inhibitors of intracellular T. cruzi replication, confirmation, NIH3T3 host cells, beta-gal luminescence (AID 2044).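 Further: intracellular parasites grown in NIH/3T3 mouse fibroblasts as host cells; luminescent beta-galactosidase reporter signal from transgenic T. cruzi replicating inside host cells; inhibitors lower the luminescence signal.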 Type of assay: functional, cell-based.
Assay [4] is described as follows: cytotoxicity toward NIH3T3 fibroblasts, dose response, counter-screen, cell-based, ATP luminescence, mouse fibroblasts (AID 2010).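 Further: cells exposed to compound for about 90 hours before reading.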 The assay is classed as functional.
Assay [5] has as its system Vero. Description: cells. Type of assay: functional. Conditions: Chlorocebus sabaeus.
The nature of assay [6]: Luminescent dose response cell-based high throughput screening assay for inhibitors of the Janus kinase 2 mutant JAK2V617F. [Related pubchem assays: 1446 (Primary screen.), 1521 (Confirmation assay.), 1486 (Counter screen.)]. The assay is classed as functional.
For assay [7], the system named is HEK293. Description: NOD1 signaling inhibitors, primary screen, cell-based, luminescence, uHTS (AID 1578). The assay is classed as functional. Conditions: Homo sapiens.
For assay [8], the system named is HEK293. As to the kind of experiment: cells. Type of assay: functional, cell-based. Conditions: Homo sapiens.
Assay [9] has as its system HEK293. As to the kind of experiment: cells. Type of assay: functional, cell-based. Conditions: Homo sapiens. This is another data set of the same source.
The test system of assay [10] is HEK293. As to the kind of experiment: NOD2 signaling inhibitors in MDP-stimulated cells, cell-based, uHTS, luminescence (AID 2001). Type of assay: functional. Conditions: Homo sapiens.
A short description of assay [11]: microbe, parasite or virus in culture. Type of assay: functional. Conditions: Mycobacterium tuberculosis.
A short description of assay [12]: THP-1 cell cytotoxicity, dose response, cytotoxicity control for non-replicating M. tuberculosis project (AID 489025). The assay is classed as functional.
The nature of assay [13]: Luminescence Cell-Based Dose Retest to Confirm Inhibitors of Cancer Stem Cells. [Related pubchem assays (depositor defined):AID2717, AID2721]. Type of assay: functional. Conditions: Homo sapiens.
The nature of assay [14]: Vero E6 cell cytotoxicity, dose response, cytotoxicity control for non-replicating M. tuberculosis project, secondary assay (AID 492998). Type of assay: functional, VeroE6. Conditions: Vero C1008.
In the next assay the target is T1, Hexokinase HKDC1 (Homo sapiens, UniProt Q2TB90).
T1 sequence (Q2TB90 whole entry): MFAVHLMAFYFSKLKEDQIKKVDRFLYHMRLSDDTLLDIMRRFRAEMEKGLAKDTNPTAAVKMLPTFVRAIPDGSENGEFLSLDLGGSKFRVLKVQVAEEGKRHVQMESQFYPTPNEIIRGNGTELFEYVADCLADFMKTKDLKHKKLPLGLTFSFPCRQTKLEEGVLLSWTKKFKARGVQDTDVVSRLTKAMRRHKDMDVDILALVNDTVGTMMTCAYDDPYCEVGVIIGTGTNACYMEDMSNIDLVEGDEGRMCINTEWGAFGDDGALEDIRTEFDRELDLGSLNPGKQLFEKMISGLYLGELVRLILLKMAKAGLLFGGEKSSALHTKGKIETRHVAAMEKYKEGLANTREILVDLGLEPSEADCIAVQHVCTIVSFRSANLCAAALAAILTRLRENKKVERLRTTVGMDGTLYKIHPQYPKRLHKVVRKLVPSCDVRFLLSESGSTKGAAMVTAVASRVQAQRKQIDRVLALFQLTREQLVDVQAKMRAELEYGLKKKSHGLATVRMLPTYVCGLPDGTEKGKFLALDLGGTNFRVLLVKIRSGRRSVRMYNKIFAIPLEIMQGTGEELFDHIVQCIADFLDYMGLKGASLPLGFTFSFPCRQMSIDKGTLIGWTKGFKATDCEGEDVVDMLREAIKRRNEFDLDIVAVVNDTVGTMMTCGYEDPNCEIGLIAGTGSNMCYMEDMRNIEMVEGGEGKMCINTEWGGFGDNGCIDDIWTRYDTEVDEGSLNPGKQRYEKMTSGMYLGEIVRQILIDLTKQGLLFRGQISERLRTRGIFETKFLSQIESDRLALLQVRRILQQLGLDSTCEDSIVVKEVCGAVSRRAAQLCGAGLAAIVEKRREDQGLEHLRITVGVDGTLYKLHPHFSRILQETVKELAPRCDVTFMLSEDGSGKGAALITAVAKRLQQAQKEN
Description: HKDC1 hexokinase inhibitors, dose response, biochemical, W721R variant (AID 504729). Type of assay: functional.

Assay [15] is described as follows: cells. Type of assay: functional.
Assay [16] is described as follows: Shn3 3'UTR reporter inhibitors, dose response, cell-based, Clone20 osteoblasts, firefly luciferase, cherry-picked (AID 624132).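 Further: firefly luciferase luminescence from reporter carrying the Shn3 3'UTR in osteoblasts.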 Type of assay: functional.
Assay [17] is described as follows: HepG2 cell cytotoxicity, dose response, cytotoxicity control for Shn3 inhibitor project, CellTiter-Glo, cherry-picked (AID 624134). Type of assay: functional, cell-based.
A short description of assay [18]: control 3'UTR Renilla luciferase suppression, dose response, counter-screen for Shn3 inhibitor project, cell-based, Clone20-Shn3RL, cherry-picked (AID 624133). Type of assay: functional.
Assay [19] has as its target T2, SUMO-activating enzyme (Homo sapiens, UniProt Q9UBT2). Description: SUMOylation inhibitor hit validation, confirmation, SUMOylation inhibitor project, biochemical, AlphaScreen (AID 2018). The assay is classed as functional.
A further assay concerns the target Beta-galactosidase (Escherichia coli, UniProt Q8VNN2). As to the kind of experiment: PubChem AID 485352. Type of assay: functional.
Assay [20] addresses T2, SUMO-activating enzyme. Description: inhibitors of in vitro SUMOylation cascade, primary screen, biochemical, HTRF, uHTS (AID 2006). The assay is classed as protein-complex assay.
The target in assay [21] is T3, Type-1 angiotensin II receptor (Homo sapiens, UniProt P30556).
T3 sequence (P30556 whole entry): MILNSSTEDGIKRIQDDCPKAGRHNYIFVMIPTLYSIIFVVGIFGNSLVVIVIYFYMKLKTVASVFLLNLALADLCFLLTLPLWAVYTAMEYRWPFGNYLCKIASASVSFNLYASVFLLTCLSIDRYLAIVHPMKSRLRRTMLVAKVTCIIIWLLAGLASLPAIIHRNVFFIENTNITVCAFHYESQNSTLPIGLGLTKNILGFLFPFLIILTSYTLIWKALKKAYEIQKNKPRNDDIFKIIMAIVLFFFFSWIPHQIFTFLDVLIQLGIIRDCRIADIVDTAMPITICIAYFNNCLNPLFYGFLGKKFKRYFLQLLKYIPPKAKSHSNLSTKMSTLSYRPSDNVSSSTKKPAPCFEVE
Description: AT1 receptor antagonists, dose response, selectivity assay for APJ receptor antagonist project, cell-based, uHTS hits (AID 463214).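 Further: antagonist potency against angiotensin II stimulated AT1 response.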 Type of assay: functional.

Assay [22] deals with T4, Mannose-6-phosphate isomerase (Homo sapiens, UniProt P34949).
T4 sequence (P34949 whole entry): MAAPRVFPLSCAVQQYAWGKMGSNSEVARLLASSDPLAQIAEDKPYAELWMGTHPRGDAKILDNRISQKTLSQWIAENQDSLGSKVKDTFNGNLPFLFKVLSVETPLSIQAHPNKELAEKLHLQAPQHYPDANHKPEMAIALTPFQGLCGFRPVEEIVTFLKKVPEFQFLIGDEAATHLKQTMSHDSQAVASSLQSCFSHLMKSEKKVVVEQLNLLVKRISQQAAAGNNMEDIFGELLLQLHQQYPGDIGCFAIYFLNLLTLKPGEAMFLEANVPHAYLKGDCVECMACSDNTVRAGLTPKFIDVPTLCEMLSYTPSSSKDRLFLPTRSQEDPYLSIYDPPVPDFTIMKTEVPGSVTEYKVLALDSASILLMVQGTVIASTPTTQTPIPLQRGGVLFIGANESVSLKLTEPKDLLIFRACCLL
Description: human PMI inhibitors, high substrate, primary screen, biochemical, fluorescence intensity, high mannose 6-phosphate (AID 1220).

The target of assay [23] is T5, Sentrin-specific protease 8 (Homo sapiens, UniProt Q96LD8).
T5 sequence (Q96LD8 whole entry): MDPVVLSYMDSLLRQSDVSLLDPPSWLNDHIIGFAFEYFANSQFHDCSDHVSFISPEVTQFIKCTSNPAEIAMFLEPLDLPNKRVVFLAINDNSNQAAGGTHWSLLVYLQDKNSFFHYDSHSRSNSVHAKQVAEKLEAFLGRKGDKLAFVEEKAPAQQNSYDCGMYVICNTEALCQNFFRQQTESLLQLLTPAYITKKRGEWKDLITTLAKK
Type of assay: functional.

Assay [24] addresses T5, Sentrin-specific protease 8. The assay is classed as functional. This is another data set of the same source.
Assay [25] can be described thus: HEp-2 cell cytotoxicity, dose response, cytotoxicity control for RSV inhibitor project, HTS (AID 2410). Conditions: human respiratory syncytial virus. Type of assay: functional.
Assay [26] relates to Vero. As to the kind of experiment: cells. Conditions: Chlorocebus sabaeus. The assay is classed as functional, cell-based.
A short description of assay [27]: cells.
Assay [28] has as its system HEK293. Description: cells. Conditions: Homo sapiens.
The test system of assay [29] is HEK293. As to the kind of experiment: cells. Conditions: Homo sapiens. The source holds these as a separate data set.

T2 sequence (Q9UBE0 whole entry): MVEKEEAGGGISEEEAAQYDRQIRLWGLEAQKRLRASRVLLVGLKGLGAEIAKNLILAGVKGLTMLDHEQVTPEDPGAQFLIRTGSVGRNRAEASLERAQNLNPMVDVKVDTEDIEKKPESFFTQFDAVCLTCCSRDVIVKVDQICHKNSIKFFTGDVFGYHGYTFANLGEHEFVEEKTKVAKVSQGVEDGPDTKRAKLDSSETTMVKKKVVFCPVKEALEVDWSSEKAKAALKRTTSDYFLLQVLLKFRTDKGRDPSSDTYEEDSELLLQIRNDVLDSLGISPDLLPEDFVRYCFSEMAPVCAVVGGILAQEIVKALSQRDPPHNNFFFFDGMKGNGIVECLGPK
T2 sequence (Q9UBT2 whole entry): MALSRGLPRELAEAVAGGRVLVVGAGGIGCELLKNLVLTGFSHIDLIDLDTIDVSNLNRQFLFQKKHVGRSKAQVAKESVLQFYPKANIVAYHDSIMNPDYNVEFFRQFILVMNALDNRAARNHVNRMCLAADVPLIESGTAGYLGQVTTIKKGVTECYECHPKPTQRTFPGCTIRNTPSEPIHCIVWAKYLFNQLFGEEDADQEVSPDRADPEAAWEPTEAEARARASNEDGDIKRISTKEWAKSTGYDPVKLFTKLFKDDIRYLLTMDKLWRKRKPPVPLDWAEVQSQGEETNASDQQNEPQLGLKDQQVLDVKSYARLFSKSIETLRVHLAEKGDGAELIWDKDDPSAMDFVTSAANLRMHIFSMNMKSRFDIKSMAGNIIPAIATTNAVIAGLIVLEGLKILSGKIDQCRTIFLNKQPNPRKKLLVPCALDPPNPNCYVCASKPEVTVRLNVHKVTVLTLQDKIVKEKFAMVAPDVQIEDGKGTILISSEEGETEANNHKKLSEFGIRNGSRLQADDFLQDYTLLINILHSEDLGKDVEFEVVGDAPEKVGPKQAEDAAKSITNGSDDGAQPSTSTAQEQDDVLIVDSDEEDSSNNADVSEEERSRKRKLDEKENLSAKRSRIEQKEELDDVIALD
Beta-galactosidase, sequence (Q8VNN2 whole entry): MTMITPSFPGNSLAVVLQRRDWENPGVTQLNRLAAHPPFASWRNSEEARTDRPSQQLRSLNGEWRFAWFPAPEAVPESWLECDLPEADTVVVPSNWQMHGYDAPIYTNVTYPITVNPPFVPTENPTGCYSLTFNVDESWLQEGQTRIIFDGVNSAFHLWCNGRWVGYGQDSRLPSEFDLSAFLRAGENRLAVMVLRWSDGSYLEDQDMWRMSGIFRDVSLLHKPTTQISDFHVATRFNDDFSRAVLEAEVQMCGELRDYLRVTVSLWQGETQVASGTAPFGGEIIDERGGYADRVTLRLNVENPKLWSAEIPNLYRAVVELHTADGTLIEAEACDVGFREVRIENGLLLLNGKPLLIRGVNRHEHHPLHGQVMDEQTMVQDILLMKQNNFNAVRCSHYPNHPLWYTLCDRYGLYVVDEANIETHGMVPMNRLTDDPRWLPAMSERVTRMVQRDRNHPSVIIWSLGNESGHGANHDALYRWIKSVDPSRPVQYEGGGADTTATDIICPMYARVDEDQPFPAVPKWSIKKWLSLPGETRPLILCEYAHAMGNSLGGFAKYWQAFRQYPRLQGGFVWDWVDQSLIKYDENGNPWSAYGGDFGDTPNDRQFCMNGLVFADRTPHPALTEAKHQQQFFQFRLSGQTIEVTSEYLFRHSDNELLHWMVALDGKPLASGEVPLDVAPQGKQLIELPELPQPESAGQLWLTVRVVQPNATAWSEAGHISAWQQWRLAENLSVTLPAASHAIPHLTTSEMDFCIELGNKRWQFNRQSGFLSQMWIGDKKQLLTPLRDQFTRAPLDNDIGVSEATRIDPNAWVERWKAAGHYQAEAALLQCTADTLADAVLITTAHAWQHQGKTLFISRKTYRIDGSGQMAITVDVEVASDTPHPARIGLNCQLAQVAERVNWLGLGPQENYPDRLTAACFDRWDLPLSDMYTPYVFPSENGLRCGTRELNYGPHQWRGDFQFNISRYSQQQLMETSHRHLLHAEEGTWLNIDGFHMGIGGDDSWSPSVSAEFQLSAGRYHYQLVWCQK

`Cc1ccc(OCC(O)Cn2c(=N)n(CCN3CCCCC3)c3ccccc32)cc1` (centres undefined): the IC50 is 1.28 µM (active) in assay [1] and 3.24 µM (active) in [2]. The EC50 in assay [3] was 3.83 µM (active); in assay [4], > 60 µM (not active). Moreover, the CC50 in the assay on Vero [5] is 13.8 µM (active).
Take `Cc1nc([N+](=O)[O-])c(Br)n1CC(=O)c1ccc2ccccc2c1`: the IC50 in assay [6] was 1.88 µM (active); in the assay on HEK293 [8], 3.46 µM (active); in the assay with HEK293 [9], > 20 µM (inactive); in the assay with HEK293 [10], 3.77 µM (active); at Hexokinase HKDC1, 20.6 µM (inactive); in “cells [15]” it was 10.1 µM (active). The concentration giving a half-maximal response (EC50) in the assay with HEK293 [7] was 17.6 µM (active). Moreover, the CC50 in assay [11] was 16 µM (active); in [12], 17.4 µM (active); in assay [14], 16.3 µM (active). For the same molecule, the AC50 in [13] was 4.44 µM (active); in [16] it was 10.7 µM (active); in assay [17], 63.7 µM (active); in assay [18] it was 3.22 µM (active).
Regarding `O=C1Nc2ccc([N+](=O)[O-])cc2C1=Nc1cccc(CO)c1`, the half-inhibitory concentration (IC50) at SUMO-activating enzyme [19] is 5.51 µM (active); on SUMO-activating enzyme [20], 18.7 µM (active); in assay [21] it was > 40 µM (not active); in assay [22], 12.4 µM (active); in [23], 8.6 µM (active); in assay [24], 7.06 µM (active). Moreover, the EC50 on Beta-galactosidase was > 40 µM (inactive).
Take `Cc1cc(C(C)(C)C)cc(C)c1CCNC(=O)c1ccc[n+]([O-])c1`: the CC50 in [25] is 38.3 µM (active). Further, the IC50 in the assay on Vero [26] is > 25 µM (active); in “cells [27]”, 38 µM (active).
As to `Oc1nc(SCc2nc(O)c3cnn(-c4ccccc4)c3n2)nc2ccccc12`, the IC50 in the assay on Vero [26] was 1.08 µM (active).
On to `Cc1cc(NC(=O)CCc2ccc(S(=O)(=O)N3CCOCC3)cc2)n(-c2ccccc2)n1`, for which the IC50 in assay [1] is 2 µM (active); in [2], 1.53 µM (active).
As for `CC(C)(C)N1C(=O)[C@H]2[C@@H](c3ccc(Br)cc3)N3C(=O)N(c4ccccc4)C(=O)[C@@]3(Cc3ccccc3)[C@H]2C1=O`, the EC50 in the assay on HEK293 [28] and with HEK293 [29] was > 59.6 µM (inactive) each time.
